The values below come from patent US7977484B2, “Crystalline form of cyano-1-cyclopropy1-7-1S,6S-2,8-diazabicyclo[4.3.0]nonan-8-yl)-6-fluoro-1,4-dihydro-4-oxo-3-quinoline carboxylic acid” (Bayer Animal Health GmbH, priority 2004, dated 2011).

Series [1] is described as follows: water uptake from the air (hygroscopicity). Type of series: physicochemical.
A short description of series [2]: storage stability of the crystal form. As to conditions: prolonged storage. Type of series: physicochemical.

`N#Cc1c(N2C[C@@H]3CCCN[C@@H]3C2)c(F)cc2c(=O)c(C(=O)O)cn(C3CC3)c12` [Pradofloxacin trihydrate, pradofloxacin trihydrate]: the “tendency to take up further water from the air” value in series [1] is “does not show any tendency to take up further water from the air”. In series [2], the “conversion to other crystal forms” value is listed as “not converted to other crystal forms”.
